Test results taken from patent publication US11787796B2, “Plasma Kallikrein inhibitors and uses thereof” (Takeda Pharmaceutical Company Limited, priority 2019, dated 2023).

These compounds were tested against human activated kallikrein enzyme (Homo sapiens (Human), UniProt P03952) (assay: Plasma kallikrein inhibition assay with fluorogenic peptide substrate, 500 pM activated kallikrein format). Conditions: 500 pM activated kallikrein; 300 uM Pro-Phe-Arg-7-amido-4-methylcoumarin substrate; 30 min preincubation, 10 min reaction at RT; read-out: Primary Dose Response Assay: Average EC50.
Chain of human activated kallikrein enzyme (P03952 391-638): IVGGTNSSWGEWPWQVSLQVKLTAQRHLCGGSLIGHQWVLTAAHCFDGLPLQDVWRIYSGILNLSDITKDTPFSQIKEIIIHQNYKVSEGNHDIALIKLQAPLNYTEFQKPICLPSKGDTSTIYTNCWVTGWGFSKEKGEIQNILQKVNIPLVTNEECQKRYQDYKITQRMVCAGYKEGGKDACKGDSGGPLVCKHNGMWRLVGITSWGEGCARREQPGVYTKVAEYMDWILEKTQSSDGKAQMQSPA
Chain of human activated kallikrein enzyme (P03952 20-390 partner): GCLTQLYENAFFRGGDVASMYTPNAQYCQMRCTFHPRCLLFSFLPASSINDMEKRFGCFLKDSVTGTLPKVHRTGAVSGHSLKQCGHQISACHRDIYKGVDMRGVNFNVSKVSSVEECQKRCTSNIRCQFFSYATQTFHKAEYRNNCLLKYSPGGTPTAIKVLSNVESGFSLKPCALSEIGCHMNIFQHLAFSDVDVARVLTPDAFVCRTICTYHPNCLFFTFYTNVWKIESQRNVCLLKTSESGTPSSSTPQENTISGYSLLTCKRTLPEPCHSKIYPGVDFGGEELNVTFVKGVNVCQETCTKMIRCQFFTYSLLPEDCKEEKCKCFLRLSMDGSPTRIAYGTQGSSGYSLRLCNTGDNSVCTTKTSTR
Assay type: biochemical
Protocol: Example compounds were evaluated for inhibition of the human activated kallikrein enzyme in two formats of an assay employing a fluorogenic peptide substrate. In one assay format, the concentrations of reagents were as follows: 20 mM Tris pH 7.5, 1 mM EDTA, 150 mM sodium chloride, 0.1% PEG-400, 0.1% Triton X-100, […], 300 uM Pro-Phe-Arg-7-amido-4-methylcoumarin substrate. Prior to reaction initiation with substrate, enzyme and inhibitors were preincubated for 30 min at RT. After initiation with substrate, reactions were incubated for 10 min at RT and fluorescence emission at 460 nm from 380 nm excitation measured with a microplate reader. In another assay format, the concentrations of reagents were as follows: 20 mM Tris pH 7.5, 1 mM EDTA, 150 mM sodium chloride, 0.1% PEG-400, 0.1% Triton X-100, 5 pM activated kallikrein enzyme, 300 uM Pro-Phe-Arg-7-amido-4-methylcoumarin substrate. Prior to reaction initiation with substrate, enzyme and inhibitors were preincubated for 30 min at RT. After initiation with substrate, reactions were incubated for 18 h at RT and fluorescence emission at 460 nm from 380 nm excitation measured with a microplate reader.
Table II provides the results of the assay in the format with 500 pM activated kallikrein assay.
Table III provides comparative plasma kallikrein inhibition potency in the assay format with 500 pM activated kallikrein assay (described in detail in the preceding example).

| SMILES | EC50 [nM] |
| --- | --- |
| COc1ccc(-n2cc(Cl)nn2)c(CNC(=O)c2cn(Cc3cn4cc(C5CC5)ccc4n3)nn2)c1F [Example I-1, N-(6-(4-chloro-1H-1,2,3-triazol-1-yl)-2-fluoro-3-methoxybenzyl)-1-((6-cyclopropylimidazo[1,2-a]pyridin-2-yl)methyl)-1H-1,2,3-triazole-4-carboxamide] | ≤ 1 |
| COc1ccc(-n2cnnn2)c(CNC(=O)c2cc3n(n2)CCC3c2cn3cc(C4CC4)ccc3n2)c1F (stereo not shown) [Example I-2, 4-(6-cyclopropylimidazo[1,2-a]pyridin-2-yl)-N-(2-fluoro-3-methoxy-6-(1H-tetrazol-1-yl)benzyl)-5,6-dihydro-41-pyrrolo[1,2-b]pyrazole-2-carboxamide] | 1 to 10 |
| O=C(NCc1cc(Cl)ccc1-n1cc(Cl)nn1)c1cn(Cc2cn3cc(C4CC4)ccc3n2)nn1 [Example I-3, N-(5-chloro-2-(4-chloro-1H-1,2,3-triazol-1-yl)benzyl)-1-((6-cyclopropylimidazo[1,2-a]pyridin-2-yl)methyl)-1H-1,2,3-triazole-4-carboxamide] | 10 to 100 |
| COc1ccc(-n2cnnn2)c(CNC(=O)c2nc3n(n2)CCC3c2cn3cc(C4CC4)ccc3n2)c1F (stereo not shown) [Example I-4, 7-(6-cyclopropylimidazo[1,2-a]pyridin-2-yl)-N-(2-fluoro-3-methoxy-6-(1H-tetrazol-1-yl)benzyl)-6,7-dihydro-5H-pyrrolo[1,2-b][1,2,4]triazole-2-carboxamide] | 1 to 10 |
| COc1ccnc(CNC(=O)c2cn3c(n2)CCC3c2cn3cc(C4CC4)ccc3n2)c1F (stereo not shown) [Example I-5, 5-(6-cyclopropylimidazo[1,2-a]pyridin-2-yl)-N-((3-fluoro-4-methoxypyridin-2-yl)methyl)-6,7-dihydro-5H-pyrrolo[1,2-a]imidazole-2-carboxamide] | 10 to 100 |
| COc1ccnc(CNC(=O)c2cnc3n2C(c2cn4cc(C5CC5)ccc4n2)CC3)c1F (stereo not shown) [Example I-6, 5-(6-cyclopropylimidazo[1,2-a]pyridin-2-yl)-N-((3-fluoro-4-methoxypyridin-2-yl)methyl)-6,7-dihydro-5H-pyrrolo[1,2-a]imidazole-3-carboxamide] | > 7100 |
| COc1ccnc(CNC(=O)c2cn(Cc3cn4cc(C5CC5)ccc4n3)nn2)c1F [Example I-7, 1-((6-cyclopropylimidazo[1,2-a]pyridin-2-yl)methyl)-N-((3-fluoro-4-methoxypyridin-2-yl)methyl)-1H-1,2,3-triazole-4-carboxamide] | 10 to 100 |
| COc1ccc(F)c(CNC(=O)c2cn(Cc3cn4cc(C5CC5)cc(COCCN(C)C)c4n3)nn2)c1F [Example I-8, 1-((6-cyclopropyl-8-((2-(dimethylamino)ethoxy)methyl)imidazo[1,2-a]pyridin-2-yl)methyl)-N-(2,6-difluoro-3-methoxybenzyl)-1H-1,2,3-triazole-4-carboxamide] | 1 to 10 |
| COc1ccc(-n2cnnn2)c(CNC(=O)c2cn3c(n2)OCC3c2cn3cc(C4CC4)ccc3n2)c1F (stereo not shown) [Example I-9, 3-(6-cyclopropylimidazo[1,2-a]pyridin-2-yl)-N-(2-fluoro-3-methoxy-6-(1H-tetrazol-1-yl)benzyl)-2,3-dihydroimidazo[2,1-b]oxazole-6-carboxamide] | 10 to 100 |
| NCc1cc(C2CC2)cn2cc(Cn3cc(C(=O)NC4CCc5c4ccnc5N)nn3)nc12 (stereo not shown) [Example I-10, N-(1-amino-6,7-dihydro-5H-cyclopenta[c]pyridin-5-yl)-1-((8-(aminomethyl)-6-cyclopropylimidazo[1,2-a]pyridin-2-yl)methyl)-1H-1,2,3-triazole-4-carboxamide] | ≤ 1 |
| O=C(NCc1cc2c(Cl)nccc2s1)c1cn(Cc2cn3cc(C4CC4)ccc3n2)nn1 [Example I-11, N-((4-chlorothieno[3,2-c]pyridin-2-yl)methyl)-1-((6-cyclopropylimidazo[1,2-a]pyridin-2-yl)methyl)-1H-1,2,3-triazole-4-carboxamide] | > 7100 |
| COc1ccc(F)c(CNC(=O)c2cn(Cc3cn4cc(C5CC5)cc(CC(C)(C)C#N)c4n3)nn2)c1F [Example I-12, 1-((8-(2-cyano-2-methylpropyl)-6-cyclopropylimidazo[1,2-a]pyridin-2-yl)methyl)-N-(2,6-difluoro-3-methoxybenzyl)-1H-1,2,3-triazole-4-carboxamide] | 1 to 10 |
| COc1ccc(F)c(CNC(=O)c2cn(Cc3cn4cc(C5CC5)cc(CN)c4n3)nn2)c1F [Example I-13, 1-((8-(aminomethyl)-6-cyclopropylimidazo[1,2-a]pyridin-2-yl)methyl)-N-(2,6-difluoro-3-methoxybenzyl)-1H-1,2,3-triazole-4-carboxamide] | 1 to 10 |
| N#Cc1cc(C2CC2)cn2cc(Cn3cc(C(=O)NC4CCc5c4ccnc5N)nn3)nc12 (stereo not shown) [Example I-14, N-(1-amino-6,7-dihydro-5H-cyclopenta[c]pyridin-5-yl)-1-((8-cyano-6-cyclopropylimidazo[1,2-a]pyridin-2-yl)methyl)-1H-1,2,3-triazole-4-carboxamide] | 1 to 10 |
| COc1ccc(-n2cnnn2)c(CNC(=O)c2c(C)nn(Cc3cn4cc(C5CC5)ccc4n3)c2C)c1F [Example I-15, 1-((6-cyclopropylimidazo[1,2-a]pyridin-2-yl)methyl)-N-(2-fluoro-3-methoxy-6-(1H-tetrazol-1-yl)benzyl)-3,5-dimethyl-1H-pyrazole-4-carboxamide] | 100 to 2000 |
| Cc1cc2c(c(N)n1)CCC2NC(=O)c1cn(Cc2cn3cc(C4CC4)ccc3n2)nn1 (stereo not shown) [Example I-16, N-(1-amino-3-methyl-6,7-dihydro-5H-cyclopenta[c]pyridin-5-yl)-1-((6-cyclopropylimidazo[1,2-a]pyridin-2-yl)methyl)-1H-1,2,3-triazole-4-carboxamide] | ≤ 1 |
| COc1ccc(-n2cnnn2)c(CNC(=O)c2cn(Cc3cn4cc(C5CC5)cc(COCCN)c4n3)nn2)c1F [Example I-17, 1-((8-((2-aminoethoxy)methyl)-6-cyclopropylimidazo[1,2-a]pyridin-2-yl)methyl)-N-(2-fluoro-3-methoxy-6-(1H-tetrazol-1-yl)benzyl)-1H-1,2,3-triazole-4-carboxamide] | ≤ 1 |
| Nc1ncc(CNC(=O)c2cn(Cc3cn4cc(C5CC5)ccc4n3)nn2)s1 [Example I-18, N-((2-aminothiazol-5-yl)methyl)-1-((6-cyclopropylimidazo[1,2-a]pyridin-2-yl)methyl)-1H-1,2,3-triazole-4-carboxamide] | 100 to 2000 |
| Nc1nnc(CNC(=O)c2cn(Cc3cn4cc(C5CC5)ccc4n3)nn2)o1 [Example I-19, N-((5-amino-1,3,4-oxadiazol-2-yl)methyl)-1-((6-cyclopropylimidazo[1,2-a]pyridin-2-yl)methyl)-1H-1,2,3-triazole-4-carboxamide] | 2000 to 7100 |
| Nc1nnc(CNC(=O)c2cn(Cc3cn4cc(C5CC5)ccc4n3)nn2)s1 [Example I-20, N-((5-amino-1,3,4-thiadiazol-2-yl)methyl)-1-((6-cyclopropylimidazo[1,2-a]pyridin-2-yl)methyl)-1H-1,2,3-triazole-4-carboxamide] | 2000 to 7100 |
| Nc1nnc(CNC(=O)c2cn(Cc3cn4cc(C5CC5)ccc4n3)nn2)[nH]1 [Example I-21, N-((5-amino-4H-1,2,4-triazol-3-yl)methyl)-1-((6-cyclopropylimidazo[1,2-a]pyridin-2-yl)methyl)-1H-1,2,3-triazole-4-carboxamide] | 2000 to 7100 |
| COc1ccc(-n2cnnn2)c(CNC(=O)c2cn3c(n2)CCC3c2cn3cc(C4CC4)ccc3n2)c1F (stereo not shown) [Example I-22, 5-(6-cyclopropylimidazo[1,2-a]pyridin-2-yl)-N-(2-fluoro-3-methoxy-6-(1H-tetrazol-1-yl)benzyl)-6,7-dihydro-5H-pyrrolo[1,2-a]imidazole-2-carboxamide] | ≤ 1 |
| Nc1nccc2c1CCC2NC(=O)c1cn(Cc2cn3cc(C4CC4)ccc3n2)nn1 (stereo not shown) [Example I-23, N-(1-amino-6,7-dihydro-5H-cyclopenta[c]pyridin-5-yl)-1-((6-cyclopropylimidazo[1,2-a]pyridin-2-yl)methyl)-1H-1,2,3-triazole-4-carboxamide] | ≤ 1 |
| COc1ccc(-n2cnnn2)c(CNC(=O)c2cnc3n2C(c2cn4cc(C5CC5)ccc4n2)CC3)c1F (stereo not shown) [Example I-24, 5-(6-cyclopropylimidazo[1,2-a]pyridin-2-yl)-N-(2-fluoro-3-methoxy-6-(1H-tetrazol-1-yl)benzyl)-6,7-dihydro-5H-pyrrolo[1,2-a]imidazole-3-carboxamide] | 2000 to 7100 |
| COc1ccc(-n2cnnn2)c(CNC(=O)c2cn(Cc3cn4cc(C5CC5)cc(CN)c4n3)nn2)c1F [Example I-25, 1-((8-(aminomethyl)-6-cyclopropylimidazo[1,2-a]pyridin-2-yl)methyl)-N-(2-fluoro-3-methoxy-6-(1H-tetrazol-1-yl)benzyl)-1H-1,2,3-triazole-4-carboxamide] | ≤ 1 |

Same assay, conditions: comparative compounds (Table III); 500 pM activated kallikrein format; read-out: Primary Dose Response Assay: Average EC50

| SMILES | EC50 [nM] |
| --- | --- |
| O=C(NCc1ncn2ccc(Cl)c(F)c12)c1cn(Cc2ccc3nccnc3c2)nn1 | 10 to 100 |
| O=C(NCc1ncn2ccc(Cl)c(F)c12)c1cn(Cc2cn3ccccc3n2)nn1 | 10 to 100 |
| NC(=O)c1cnn(Cc2cn3cc(C4CC4)ccc3n2)c1 | > 7100 |
